From patent US11415513B2, “Method for determining the degree of sensitivity of a strain of fungus to an antifungal agent” (UNIVERSITE GRENOBLE ALPES, priority 2015, dated 2022)
Converted amounts (≈) assume the structure as drawn. Read-outs that look alike come from different tables or passages of the source.

Assays:
[1] = tested on: strain Tg5 of C. glabrata; experiment: Sensitivity test by HCA microscopy (chitin level, Calcofluor White); type: cell-based, Candida glabrata; details: 6.5 h at 35° C., RPMI medium; for decrease in the chitin level in the wall of the cells: vs cells in the absence of antifungal agent, concentration gradient of Table 1
Procedure: (§1) The strains of Candida were incubated beforehand at 30° C. overnight in a yeast extract medium—peptone dextrose (YPD) (1% bacto peptone, 0.5% yeast extract, 2% glucose, 1.5% agar).
Yeast colonies were then removed from YPD medium plates and suspended in a 0.9% NaCl saline solution, in which the cell concentration was estimated by optical microscopy using Kova counting slides.
A dilution was performed to obtain 15 ml of an inoculum at 3×10^6 CFU/ml, in a synthetic complete (SC) medium at pH 7 (2% glucose, 0.5% ammonium sulfate, 0.17% nitrogen-containing yeast base, 0.2% synthetic complete mixture, and 10% HEPES 1.5M pH 7.2) for C. albicans, C. parapsilosis, C. tropicalis and C. krusei, and in a solution of RPMI 1640 pH 7.3 (10% HEPES 1M pH 7.2) for C. glabrata, so as to reduce the formation of septa and clusters.
1 ml of inoculum was then added to 2 ml of antifungal solution prepared in an SC or RPMI medium depending on the species of fungus, so as to obtain a final concentration of yeast of 10^6 CFU/ml and the desired concentration of antifungal agent according to table 1.
After homogenisation, the cultures were placed at 30° C. at 200 rpm, with the exception of cultures of C. glabrata, which were placed at 35° C. at 200 rpm, and incubated for a period of 6.5 h or 24 h.
After incubation, 100 μl of the culture of fungi obtained above were transferred in triplicate to 96-well plates, and 2.5 μl of Calcofluor White (CFW) were added to each well so as to mark the chitin of the cell walls of the yeasts.
(§2) A step of acquiring images by automated fluorescence microscopy (ScanR screening station, Olympus), using a 40× lens and a CFW filter, made it possible to obtain 30 images per well so as to capture enough cells to provide statistically significant data. These images were analysed by software (ScanR analysis software, Olympus). Firstly, the background noise was processed so as to improve the contrast between the fluorescence of the yeasts and background noise. A pixel threshold was then defined. Segmentation of the fluorescent elements present in each of the acquired images was then performed using an algorithm predefined in the software, making it possible to determine the limit of each element on the basis of the fluorescence intensity of said element. […]
(§3) Each element then corresponding to a yeast, it was thus possible, on the basis of these elements predefined beforehand, to define the fluorescence intensity for each of the yeasts, this intensity being directly correlated with the chitin content of their wall. […]
The chitin level in the cell wall of the yeasts was then measured by […] analysis (HCA) microscopy, as described in paragraph II of the Examples section, in triplicate for each condition of concentration of fluconazole and without fluconazole. […]

[2] = tested on: strain 8/21 of C. parapsilosis; experiment: as above; type: cell-based, Candida parapsilosis; details: vs cells in the absence of antifungal agent; 6.5 h at 30° C., SC medium; concentration gradient of Table 1
Procedure: as §1
Yeast colonies were then removed from YPD medium plates and suspended in a 0.9% NaCl saline solution, in which the cell concentration was estimated by optical microscopy using Kova counting slides. […]
as §2, with “A pixel threshold was then defined.” left out
as §3

[3] = tested on: strain Tg5 of C. glabrata; experiment: Etest method (MIC); type: cell-based, Candida glabrata; details: for MIC: Nakaseomyces glabratus, read-out: MIC (Etest method)
Procedure: The Etest® method is a commercial test for determining the sensitivity of a strain, most frequently used routinely in clinical mycology laboratories.
The Etest® tests were performed according to the manufacturer's instructions. After distributing a standardised Mac Farland 0.5 inoculum (equivalent of […]) over plates of RPMI medium, said plates were incubated for 24 h at 35° C., with the exception of C. glabrata in which case the incubation was extended to 48 h so as to be able to determine the minimum inhibitory concentration (MIC).
The results of the MICs obtained were interpreted in accordance with the tables of the CLSI (Clinical and Laboratory Standards Institute) and/or of EUCAST (European Committee on Antimicrobial Susceptibility Testing) (Arendrup M C, Cuenca-Estrella M, Lass-Flörl C, Hope W W (2014) Breakpoints for antifungal agents: an update from EUCAST focussing on echinocandins against Candida spp and triazoles against Aspergillus spp. Drug Resist Updat 16(6):81-95. doi:10.1016/j.drup.2014.01.001) (cf. Table 2 taken from Maubon D, Garnaud C, Calandra T, et al. (2014) Resistance of Candida spp. to antifungal drugs in the ICU: where are we now? Intensive Care Med. doi: 10.1007/s00134-014-3404-7) which list the clinical thresholds (CBPs) for the most common species of yeast of the genus Candida as a function of different antifungal agents, or according to the table of epidemiological thresholds (ECVs).

[4] = RPMI medium plates, 35° C., incubation extended to 48 h for C. glabrata

Row | SMILES | phenotype of the strain with respect to the antifungal agent (HCA) [1] | decrease in the chitin level in the wall of the cells [1] | increase in the chitin level in the wall of the cells [2] | MIC [3, 4] [µg/mL] | phenotype by Etest MIC, interpretation by the EUCAST and/or CLSI tables [3, 4] | MIC ([3]; 48 h) [µg/mL]
1 | OC(Cn1cncn1)(Cn1cncn1)c1ccc(F)cc1F [fluconazole] | resistant (an increase in the chitin level having a value less than 10% or a decrease in the chitin level of less than 20% or an unchanged chitin level) | less than 20% | less than 10% | > 256 | resistant | –
2 | C[C@@H](c1ncncc1F)[C@](O)(Cn1cncn1)c1ccc(F)cc1F [voriconazole] | resistant (an increase in the chitin level having a value less than 10% or a decrease in the chitin level of less than 20% or an unchanged chitin level) | less than 20% | less than 10% | – | resistant | 8 (≈ 22.9 µM)
